# Experimental data: PubChem BioAssay (NCI)
#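 Grown in 96-well plates, cells were treated for 48 hours with each compound at five concentrations. Insufficient inhibition: endpoint recorded as highest concentration tested. TGI marks complete inhibition of growth.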
# How the values were obtained:
# Experiment in all cases: NCI tumour cell line growth inhibition, 48 h
# [1] = tested on: 786-0 renal
# [2] = tested on: A498 renal
# [3] = tested on: A549 NSCLC
# [4] = tested on: ACHN renal
# [5] = tested on: CAKI-1 renal
# [6] = tested on: CCRF-CEM leukemia
# [7] = tested on: COLO 205 colon
# [8] = tested on: DLD-1 colon
# [9] = tested on: DMS 114 small cell lung
# [10] = tested on: DMS 273 small cell lung
# [11] = tested on: DU-145 prostate
# [12] = tested on: EKVX NSCLC
# [13] = tested on: HCC-2998 colon
# [14] = tested on: HCT-116 colon
# [15] = tested on: HCT-15 colon
# [16] = tested on: HL-60(TB) leukemia
# [17] = tested on: HOP-18 NSCLC
# [18] = tested on: HOP-62 NSCLC
# [19] = tested on: HOP-92 NSCLC
# [20] = tested on: HT29 colon
# [21] = tested on: IGROV1 ovarian
# [22] = tested on: K-562 leukemia
# [23] = tested on: KM12 colon
# [24] = tested on: KM20L2 colon
# [25] = tested on: LOX IMVI melanoma
# [26] = tested on: LXFL 529 NSCLC
# [27] = tested on: M14 melanoma
# [28] = tested on: M19-MEL melanoma
# [29] = tested on: MALME-3M melanoma
# [30] = tested on: MOLT-4 leukemia
# [31] = tested on: NCI-H226 lung
# [32] = tested on: NCI-H23 lung
# [33] = tested on: NCI-H460 lung
# [34] = tested on: NCI-H522 lung
# [35] = tested on: OVCAR-3 ovarian
# [36] = tested on: OVCAR-4 ovarian
# [37] = tested on: OVCAR-5 ovarian
# [38] = tested on: OVCAR-8 ovarian
# [39] = tested on: RPMI-8226 leukemia
# [40] = tested on: RXF 393 renal
# [41] = tested on: RXF-631 renal
# [42] = tested on: SF-268 CNS
# [43] = tested on: SF-295 CNS
# [44] = tested on: SF-539 CNS
# [45] = tested on: SK-MEL-2 melanoma
# [46] = tested on: SK-MEL-28 melanoma
# [47] = tested on: SK-MEL-5 melanoma
# [48] = tested on: SK-OV-3 ovarian
# [49] = tested on: SN12C renal
# [50] = tested on: SNB-19 CNS
# [51] = tested on: SNB-75 CNS
# [52] = tested on: SNB-78 CNS
# [53] = tested on: SR leukemia
# [54] = tested on: SW-620 colon
# [55] = tested on: TK-10 renal
# [56] = tested on: U251 CNS
# [57] = tested on: UACC-257 melanoma
# [58] = tested on: UACC-62 melanoma
# [59] = tested on: UO-31 renal
smiles,measurement,setting,value
C=C(CN(C)C)C(=O)c1ccccc1Cl,TGI,[1],34.3 µM
same,TGI,[2],> 96 µM
same,TGI,[3],> 100 µM
same,TGI,[4],32.5 µM
same,TGI,[5],30.9 µM
same,TGI,[6],44.3 µM
same,TGI,[7],29.3 µM
same,TGI,[8],36.3 µM
same,TGI,[9],29.4 µM
same,TGI,[10],36.8 µM
same,TGI,[11],> 100 µM
same,TGI,[12],> 76.6 µM
same,TGI,[13],61 µM
same,TGI,[14],34 µM
same,TGI,[15],38.8 µM
same,TGI,[16],29.6 µM
same,TGI,[17],33.7 µM
same,TGI,[18],> 100 µM
same,TGI,[19],31.1 µM
same,TGI,[20],34.4 µM
same,TGI,[21],> 70.8 µM
same,TGI,[22],> 75.4 µM
same,TGI,[23],> 75 µM
same,TGI,[24],> 60.4 µM
same,TGI,[25],33.4 µM
same,TGI,[26],26 µM
same,TGI,[27],33.3 µM
same,TGI,[28],33.4 µM
same,TGI,[29],31.7 µM
same,TGI,[30],> 75.2 µM
same,TGI,[31],> 100 µM
same,TGI,[32],54.6 µM
same,TGI,[33],> 100 µM
same,TGI,[34],15.6 µM
same,TGI,[35],34.9 µM
same,TGI,[36],40.8 µM
same,TGI,[37],> 60.4 µM
same,TGI,[38],45.2 µM
same,TGI,[39],82.3 µM
same,TGI,[40],29.6 µM
same,TGI,[41],37.8 µM
same,TGI,[42],42.7 µM
same,TGI,[43],> 100 µM
same,TGI,[44],> 54.6 µM
same,TGI,[45],36.5 µM
same,TGI,[46],19.4 µM
same,TGI,[47],57.8 µM
same,TGI,[48],> 100 µM
same,TGI,[49],42.3 µM
same,TGI,[50],> 100 µM
same,TGI,[51],> 80.7 µM
same,TGI,[52],83.1 µM
same,TGI,[53],> 81.7 µM
same,TGI,[54],27.7 µM
same,TGI,[55],39.2 µM
same,TGI,[56],98.4 µM
same,TGI,[57],37.5 µM
same,TGI,[58],34.2 µM
same,TGI,[59],33.6 µM
N#CCc1ccccc1/C(C#N)=C1/OC(=N)C(c2ccccc2CC#N)C1=O (stereo unspecified),TGI,[1],> 100 µM
same,TGI,[3],> 100 µM
same,TGI,[4],> 100 µM
same,TGI,[5],> 100 µM
same,TGI,[6],> 100 µM
same,TGI,[10],> 100 µM
same,TGI,[12],> 100 µM
same,TGI,[14],> 100 µM
same,TGI,[16],> 100 µM
same,TGI,[19],> 100 µM
same,TGI,[20],> 100 µM
same,TGI,[21],> 100 µM
same,TGI,[22],> 100 µM
same,TGI,[23],> 100 µM
same,TGI,[24],> 100 µM
same,TGI,[25],> 100 µM
same,TGI,[26],> 100 µM
same,TGI,[27],> 100 µM
same,TGI,[28],> 100 µM
same,TGI,[30],> 100 µM
same,TGI,[31],> 100 µM
same,TGI,[34],> 100 µM
same,TGI,[35],> 100 µM
same,TGI,[39],> 100 µM
same,TGI,[41],> 100 µM
same,TGI,[42],> 100 µM
same,TGI,[43],> 100 µM
same,TGI,[44],> 100 µM
same,TGI,[46],> 100 µM
same,TGI,[47],> 100 µM
same,TGI,[48],> 100 µM
same,TGI,[51],> 100 µM
same,TGI,[53],> 100 µM
same,TGI,[54],> 100 µM
same,TGI,[55],> 100 µM
same,TGI,[57],> 100 µM
same,TGI,[58],> 100 µM
